Reference: publication PMC4640232 (The Journal of Organic Chemistry, 2015)
pKd: −log10 of the molar value.

Target: concanavalin A (ConA) (Canavalia ensiformis, UniProt P02866)
Assay: isothermal titration calorimetry
Assay type: binding

concanavalin A (ConA), sequence (P02866 164-281 limits assumed): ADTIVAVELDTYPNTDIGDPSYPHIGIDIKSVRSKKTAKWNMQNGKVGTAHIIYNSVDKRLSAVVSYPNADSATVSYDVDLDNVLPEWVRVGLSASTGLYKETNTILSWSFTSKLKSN
concanavalin A (ConA), sequence (P02866 30-148 limits assumed): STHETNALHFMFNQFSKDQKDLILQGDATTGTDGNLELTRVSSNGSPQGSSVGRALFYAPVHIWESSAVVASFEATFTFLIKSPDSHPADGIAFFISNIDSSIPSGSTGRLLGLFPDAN

CCCO[C@@H]1O[C@H](CO[C@H]2O[C@H](CO)[C@@H](O)[C@H](O)[C@@H]2O)[C@@H](O)[C@H](O[C@H]2O[C@H](CO)[C@@H](O)[C@H](O)[C@@H]2O)[C@@H]1O [compound 12, n-Propyl 3,6-Di-O-(α-D-mannopyranosyl)-β-D-mannopyranoside]
pKd: 5.49

CO[C@H]1O[C@H](CO)[C@@H](O)[C@H](O)[C@@H]1O [methyl α-mannoside]
pKd: 5.33
